Values quoted from earlier work as cited in US9446036B2, “Compositions of a polyorthoester and an aprotic solvent” (Heron Therapeutics, Inc., priority 2013, dated 2016).

settings: room temperature (20-25° C.)

Water Miscibility | Compound
water miscible | COC(C)=O [methyl acetate]
poorly miscible | O=C1CCCN1C1CCCCC1 [N-cyclohexyl-2-pyrrolidone]
water miscible | CCOC(=O)C(C)O (centres unmarked) [ethyl lactate]
poorly miscible | O=C(OCc1ccccc1)c1ccccc1 [benzyl benzoate]
poorly miscible | CCCCCCCCCCCCCC(=O)OC(C)C [isopropyl myristate]
water miscible | C[S+](C)[O-] [dimethyl sulfoxide]
water miscible | CN1CCCC1=O [N-methyl-2-pyrrolidone (NMP), N-methyl-2-pyrrolidone]
water miscible | CCN1CCCC1=O [n-ethyl-2-pyrrolidone]
poorly miscible | CCCCCCCC/C=C\CCCCCCCC(=O)OCC [ethyl oleate]
water miscible | CC1COC(=O)O1 (centres unmarked) [4-methyl-1,3-diololan-2-one]
water miscible | O=C1CCCCCO1 [ester-caprolactone]
partially miscible | CCOC(C)=O [ethyl acetate]
water miscible | COC(=O)C(C)O (centres unmarked) [methyl lactate]

Compound | Water Miscibility
C1CCOC1 [tetrahydrofuran] | water miscible
